Measurements taken from patent US20220388992A1, “JAK INHIBITOR COMPOUND AND USE THEREOF” (priority 2019, published 2022).

Tests used:
Assay type in all cases: biochemical
JAK3 = molecular target: T1, JAK3 (Homo sapiens, UniProt P52333); assay: JAK3 kinase inhibition, ADP-Glo luminescence assay; settings: substrate Poly (4:1 Glu, Tyr)
T1 construct: purchased Carna 08-046
Excerpt: (§1) A drug screening system based on kinases JAK1, JAK2, JAK3, and TYK2 was used to detect the inhibitory ability of small molecule compounds on kinase activity. A kinase undergoes an enzymatic reaction with its substrates IRS 1, IGF1Rtide, and Poly (4:1 Glu, Tyr), consuming ATP to produce ADP, wherein the ADP-Glo reagent and luminescence method were used to detect the amount of the product to reflect the activity of the kinase. 2.1 Experimental Materials and Instruments
(§2) a) Dilute a compound solution to be tested by 5 times with 100% DMSO. […] The final concentration of DMSO is 0.5%. d) Transfer 4 μL of ADP-Glo to the 384-well reaction plate, centrifuge it at 1000 rpm/min for 1 min, and incubate it at 25° C. for 40 min. e) Transfer 8 μL of Detection solution to the 384-well reaction plate, centrifuge it at 1000 rpm/min for 1 min, and incubate it at 25° C. for 40 min. f) Use Biotek multi-function plate reader to read the RLU (Relative luminescence unit) signal. The signal intensity is used to characterize the degree of kinase activity.
(§3) IC50 (half inhibitory concentration) of the compound can be obtained using the following nonlinear fitting formula:
(§4) Y=Bottom+(Top−Bottom)/(1+10^((Log IC50−X)*HillSlope))

TYK2 = molecular target: T2, TYK2 (Homo sapiens, UniProt P29597); assay: TYK2 kinase inhibition, ADP-Glo luminescence assay; settings: substrate IRS1
T2 sequence (P29597 871-1187 limits assumed): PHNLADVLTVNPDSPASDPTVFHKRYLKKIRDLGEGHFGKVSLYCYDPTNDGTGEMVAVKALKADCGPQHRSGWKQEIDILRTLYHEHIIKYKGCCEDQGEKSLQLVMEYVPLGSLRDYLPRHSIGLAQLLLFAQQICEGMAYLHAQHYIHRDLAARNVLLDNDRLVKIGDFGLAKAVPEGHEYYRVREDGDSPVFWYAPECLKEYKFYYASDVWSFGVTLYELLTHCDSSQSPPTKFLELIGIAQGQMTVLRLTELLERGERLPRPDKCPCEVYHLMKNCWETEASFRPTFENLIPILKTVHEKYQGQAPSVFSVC
Excerpt: as §1, §2, §3, §4

JAK2 = JAK2 (Homo sapiens, UniProt O60674); assay: JAK2 kinase inhibition, ADP-Glo luminescence assay; set-up: purchased Carna 08-045; settings: substrate IGF1Rtide
Sequence of JAK2 (O60674 826-1132 limits assumed): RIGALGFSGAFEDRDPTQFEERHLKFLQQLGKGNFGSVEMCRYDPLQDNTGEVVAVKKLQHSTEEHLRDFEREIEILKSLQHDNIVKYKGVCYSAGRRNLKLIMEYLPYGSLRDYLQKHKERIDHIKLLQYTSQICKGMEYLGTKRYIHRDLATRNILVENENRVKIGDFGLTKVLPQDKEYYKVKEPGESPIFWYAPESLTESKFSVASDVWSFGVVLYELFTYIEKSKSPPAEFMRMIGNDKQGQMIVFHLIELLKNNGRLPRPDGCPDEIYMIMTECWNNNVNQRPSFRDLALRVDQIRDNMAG
Excerpt: as §1, §2, §3, §4

JAK1 = JAK1 (Homo sapiens, UniProt P23458); assay: JAK1 kinase inhibition, ADP-Glo luminescence assay; set-up: purchased Carna 08-144; settings: substrate IRS1
Sequence of JAK1 (P23458 850-1154 limits assumed): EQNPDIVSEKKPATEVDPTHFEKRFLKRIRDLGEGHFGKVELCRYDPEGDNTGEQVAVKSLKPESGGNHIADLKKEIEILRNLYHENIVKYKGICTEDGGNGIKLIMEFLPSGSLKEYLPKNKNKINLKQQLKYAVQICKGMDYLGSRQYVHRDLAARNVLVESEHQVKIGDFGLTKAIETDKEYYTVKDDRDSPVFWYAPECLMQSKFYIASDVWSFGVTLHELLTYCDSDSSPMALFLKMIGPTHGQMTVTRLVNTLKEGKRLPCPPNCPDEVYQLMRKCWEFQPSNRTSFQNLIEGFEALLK
Excerpt: as §1, §2, §3, §4

T1 sequence (P52333 795-1124 limits assumed): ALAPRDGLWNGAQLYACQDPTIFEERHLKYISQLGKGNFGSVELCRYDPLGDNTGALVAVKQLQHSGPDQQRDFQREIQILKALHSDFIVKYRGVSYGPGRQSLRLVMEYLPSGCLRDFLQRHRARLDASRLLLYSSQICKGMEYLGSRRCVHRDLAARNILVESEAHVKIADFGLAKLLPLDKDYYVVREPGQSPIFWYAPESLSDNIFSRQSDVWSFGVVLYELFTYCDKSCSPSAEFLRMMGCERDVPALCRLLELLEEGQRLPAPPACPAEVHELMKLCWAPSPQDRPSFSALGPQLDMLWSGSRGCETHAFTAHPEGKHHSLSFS

IC50 (JAK3) [nM] | IC50 (TYK2) [nM] | IC50 (JAK2) [nM] | IC50 (JAK1) [nM] | Structure (SMILES)
0.57 | 1.7 | 0.43 | 0.43 | CCc1cc(O)c(F)cc1-c1ccc2c(-c3nc(CNC(=O)OC)c[nH]3)n[nH]c2c1 [Ex-26, methyl ((2-(6-(2-ethyl-5-fluoro-4-hydroxyphenyl)-1H-indazol-3-yl)-1H-imidazol-4-yl)methyl)carbamate]
0.49 | 0.96 | 0.68 | 0.15 | CCc1cc(O)c(F)cc1-c1ccc2c(-c3nc(CNC(=O)N4CC[C@H](O)C4)c[nH]3)n[nH]c2c1 [Ex-23, (S)—N-((2-(6-(2-ethyl-5-fluoro-4-hydroxyphenyl)-1H-indazol-3-yl)-1H-imidazol-4-yl)methyl)-3-hydroxypyrrolidine-1-carboxamide]
3.3 | 23 | 1.3 | 0.37 | CCc1cc(O)c(F)cc1-c1ccc2c(-c3nc(CN(C)CCO)c[nH]3)n[nH]c2c1 [Ex-24, 5-ethyl-2-fluoro-4-(3-(4-(((2-hydroxyethyl)(methyl)amino)methyl)-1H-imidazol-2-yl)-1H-indazol-6-yl)phenol]
4.5 | 30 | 1.8 | 0.52 | CCc1cc(O)c(F)cc1-c1ccc2c(-c3nc(CN4CC5CCC4CC5)c[nH]3)n[nH]c2c1 [Ex-30, 4-(3-(4-((2-azabicyclo[2.2.2]octan-2-yl)methyl)-1H-imidazol-2-yl)-1H-indazol-6-yl)-5-ethyl-2-fluorophenol]
2.9 | 6.5 | 1.2 | 0.36 | CCc1cc(O)c(F)cc1-c1ccc2c(-c3nc(CNCC4CC4)c[nH]3)n[nH]c2c1 [Ex-17, 4-(3-(4-(((cyclopropylmethyl)amino)methyl)-1H-imidazol-2-yl)-1H-indazol-6-yl)-5-ethyl-2-fluoro phenol]
0.48 | 1.1 | 0.68 | 0.14 | CCc1cc(O)c(F)cc1-c1ccc2c(-c3nc(CNC(=O)N4CC[C@@H](O)C4)c[nH]3)n[nH]c2c1 [Ex-22, (R)—N-((2-(6-(2-ethyl-5-fluoro-4-hydroxyphenyl)-1H-indazol-3-yl)-1H-imidazol-4-yl)methyl)-3-hydroxypyrrolidine-1-carboxamide]
3.7 | 17.3 | 1.6 | 0.1 | CCc1cc(O)c(F)cc1-c1ccc2c(-c3nc(CNC4CCC4)c[nH]3)n[nH]c2c1 [Ex-31, 4-(3-(4-((cyclobutylamino)methyl)-1H-imidazol-2-yl)-1H-indazol-6-yl)-5-ethyl-2-fluorophenol]
0.85 | 5.2 | 0.63 | 0.32 | CCc1cc(O)c(F)cc1-c1ccc2c(-c3nc(CNC4CCN(C)C4)c[nH]3)n[nH]c2c1 (centres unmarked) [Ex-35, 5-ethyl-2-fluoro-4-(3-(4-(((1-methylpyrrolidin-3-yl)amino)methyl)-1H-imidazol-2-yl)-1H-indazol-6-yl)phenol]
0.64 | 6.9 | 0.72 | 0.21 | CCc1cc(O)c(F)cc1-c1ccc2c(-c3nc(CN(C)C(=O)N4CC[C@@H](O)C4)c[nH]3)n[nH]c2c1 [Ex-21, (R)—N-((2-(6-(2-ethyl-5-fluoro-4-hydroxyphenyl)-1H-indazol-3-yl)-1H-imidazol-4-yl)methyl)-3-hydroxy-N-methylpyrrolidine-1-carboxamide]
2.5 | 18.4 | 0.85 | 0.31 | CCc1cc(O)c(F)cc1-c1ccc2c(-c3nc(CN4CCC(C#N)CC4)c[nH]3)n[nH]c2c1 [Ex-11, 1-((2-(6-(2-ethyl-5-fluoro-4-hydroxyphenyl)-1H-indazol-3-yl)-1H-imidazol-4-yl)methyl)piperidine-4-nitrile]
0.6 | 9.07 | 0.428 | 0.104 | CCc1cc(O)c(F)cc1-c1ccc2c(-c3nc(CN4CC[C@H](O)C4)c[nH]3)n[nH]c2c1 [MDI-306, (S)-1-((2-(6-(2-ethyl-5-fluoro-4-hydroxyphenyl)-1H-indazol-3-yl)-1H-imidazol-4-yl)methyl)pyrrolidin-3-ol]
0.76 | 4.9 | 0.78 | 0.29 | CCc1cc(O)c(F)cc1-c1ccc2c(-c3nc(CNc4cnn(C)c4)c[nH]3)n[nH]c2c1 [Ex-15, 5-ethyl-2-fluoro-4-(3-(4-(((1-methyl-1H-pyrazol-4-yl)amino)methyl)-1H-imidazol-2-yl)-1H-indazol-6-yl)phenol]
1.7 | 11.3 | 0.84 | 0.48 | CCc1cc(O)c(F)cc1-c1ccc2c(-c3nc(CN4CCOCC4)c[nH]3)n[nH]c2c1 [Ex-13, 5-ethyl-2-fluoro-4-(3-(4-(morpholinomethyl)-1H-imidazol-2-yl)-1H-indazol-6-yl)phenol]
1.13 | 6.82 | 0.466 | 0.317 | CCC(=O)NCc1c[nH]c(-c2n[nH]c3cc(-c4cc(F)c(O)cc4CC)ccc23)n1 [MDI-301, N-((2-(6-(2-ethyl-5-fluoro-4-hydroxyphenyl)-1H-indazol-3-yl)-1H-imidazol-4-yl)methyl)propionamide]
0.48 | 0.83 | 0.55 | 0.11 | CCc1cc(O)c(F)cc1-c1ccc2c(-c3nc(CNC(=O)N4CCOCC4)c[nH]3)n[nH]c2c1 [Ex-36, N-((2-(6-(2-ethyl-5-fluoro-4-hydroxyphenyl)-1H-indazol-3-yl)-1H-imidazol-4-yl)methyl)morpholine-4-carboxamide]
4.5 | 27 | 5.2 | 1.2 | CCc1cc(O)c(F)cc1-c1ccc2c(-c3nc(CN(C)C(=O)C4CC4)c[nH]3)n[nH]c2c1 [Ex-10, N-((2-(6-(2-ethyl-5-fluoro-4-hydroxyphenyl)-1H-indazol-3-yl)-1H-imidazol-4-yl)methyl)-N-methylcyclopropanecarboxamide]
1.7 | 13.3 | 1.4 | 0.58 | CCc1cc(O)c(F)cc1-c1ccc2c(-c3nc(CNc4ccccn4)c[nH]3)n[nH]c2c1 [Ex-33, 5-ethyl-2-fluoro-4-(3-(4-((pyridin-2-ylamino)methyl)-1H-imidazol-2-yl)-1H-indazol-6-yl)phenol]
1.9 | 11.6 | 0.89 | 0.27 | CCc1cc(O)c(F)cc1-c1ccc2c(-c3nc(CNC4CCOC4)c[nH]3)n[nH]c2c1 (centres unmarked) [Ex-32, 5-ethyl-2-fluoro-4-(3-(4-(((tetrahydrofuran-3-yl)amino)methyl)-1H-imidazol-2-yl)-1H-indazol-6-yl) phenol]
1.6 | 9.6 | 1.2 | 0.47 | CCc1cc(O)c(F)cc1-c1ccc2c(-c3nc(CNc4cccnc4)c[nH]3)n[nH]c2c1 [Ex-14, 5-ethyl-2-fluoro-4-(3-(4-((pyridin-3-ylamino)methyl)-1H-imidazol-2-yl)-1H-indazol-6-yl)phenol]
2.2 | 63.8 | 1.49 | 3.18 | CCc1cc(O)c(F)cc1-c1ccc2c(-c3nc(CNC(=O)c4cnc(N5CCOCC5)cn4)c[nH]3)n[nH]c2c1 [MDI-305, N-((2-(6-(2-ethyl-5-fluoro-4-hydroxyphenyl)-1H-indazol-3-yl)-1H-imidazol-4-yl)methyl)-5-morpholinopyrazine-2-carboxamide]
2.3 | 6.4 | 3.3 | 0.33 | CCc1cc(O)c(F)cc1-c1ccc2c(-c3nc(CNS(=O)(=O)CC)c[nH]3)n[nH]c2c1 [Ex-19, N-((2-(6-(2-ethyl-5-fluoro-4-hydroxyphenyl)-1H-indazol-3-yl)-1H-imidazol-4-yl)methyl)ethanesulfonamide]
2.5 | 7 | 2.8 | 0.4 | CCc1cc(O)c(F)cc1-c1ccc2c(-c3nc(CNS(=O)(=O)C(C)C)c[nH]3)n[nH]c2c1 [Ex-25, N-((2-(6-(2-ethyl-5-fluoro-4-hydroxyphenyl)-1H-indazol-3-yl)-1H-imidazol-4-yl)methyl)propane-2-sulfonamide]
0.5 | 1.1 | 1 | 0.15 | CCc1cc(O)c(F)cc1-c1ccc2c(-c3nc(CNC(=O)c4cnn(C)c4)c[nH]3)n[nH]c2c1 [Ex-34, N-((2-(6-(2-ethyl-5-fluoro-4-hydroxyphenyl)-1H-indazol-3-yl)-1H-imidazol-4-yl)methyl)-1-methyl-1H-pyrazole-4-carboxamide]
